# Patent publication US9486417B2, “Transdermal therapeutic system for administering lipophilic and/or sparingly skin-permeable active substances” (LTS Lohmann Therapie-Systeme AG, priority 2005, dated 2016)
# Where two headings read alike, the source gives them in different places.
# Assays:
# [1] = cited from earlier work
# [2] = pH value of 7.4; cited from earlier work
# [3] = cited from earlier work; for half-life: oral administration
# [4] = type: in vitro ADME
# Description: The first preliminary tests carried out in accordance with the present invention with a view to developing a matrix transdermal therapeutic system for administration of vinpocetine led to transdermal therapeutic systems (TTSs) by means of which a skin flux (permeation rate in steady state) of 0.91 μg/cm^2×h could be achieved. In order to adjust the therapeutically required concentration of 2 to 3 ng/ml of vinpocetine in a patient's plasma, a transdermal therapeutic system that is designed for an application period of 24 hours would have to have an area of about 120 cm^2. For reasons of patient acceptance, however, the surface area of a transdermal therapeutic system should be kept as small as possible and, if possible, should not exceed 40 cm^2, preferably 20 cm^2.
# [5] = 1% suspension of vinpocetine in ethanol and 1-menthol applied directly to human full-thickness skin in vitro; cited from earlier work
Compound,"water solubility ([1]; base, 22° C.)",solubility in ethanol or DMSO ([1]; ethanol or DMSO),proportion present in cationic form [2],"bioavailability ([3]; gastrointestinal absorption, not metabolised presystemically)",therapeutically required / effective plasma level ([3]; patient's plasma),"water-solubility ([1]; base, 22° C.)",half-life [3],skin flux (permeation rate in steady state) [4],permeation rate [5],water-solubility ([1]; room temperature),"time to enter the blood stream after administration ([3]; oral, fasting or with meals)",time until excreted by the body almost completely ([3]; oral)
"COc1nc(C)nc(Cl)c1NC1=NCCN1 [moxonidine, 4-chloro-N-(4,5-dihydro-1H-imidazol-2-yl)-6-methoxy-2-methyl-5-pyrimidinamine]",1360 µg/mL,up to 100 mM,about 50%,about 90%,around 5.4 ng/ml,,,,,,,
"CCCN1C[C@H](CSC)C[C@@H]2c3cccc4[nH]cc(c34)C[C@H]21 [pergolide, D-6-n-propyl-8 β-methyl-mercaptomethyl-ergoline]",,,,,,0.021 µg/mL,27 h,,,,,
"CCOC(=O)C1=C[C@]2(CC)CCCN3CCc4c(n1c1ccccc41)[C@@H]32 [vinpocetine, ethyl apovincamin-22-oate]",,,,,,,one to two,0.91 μg/cm^2×h,6.45 μg/cm^2×h,0.02 µg/mL,about half an hour,eight
